In the NIST ThermoML archive (doi:10.1021/je060139a):

Test: refractive index (Na D-line) (dimensionless); xn = mol fraction of the nth substance listed
Details: 100.5 kPa, Liquid, Standard Abbe refractometry

CCC(=O)OCc1ccccc1 [benzyl propanoate] + CCO
refractive index
Details	288.15 K	298.18 K	308.15 K	318.15 K
x1 = 0.05	1.38108	1.37691	1.37266	1.36853
x1 = 0.1	1.39613	1.39185	1.38756	1.38322
x1 = 0.15	1.40891	1.40454	1.4002	1.39583
x1 = 0.2	1.42001	1.41559	1.41123	1.40687
x1 = 0.25	1.42966	1.42524	1.42091	1.41651
x1 = 0.3	1.43817	1.43375	1.42944	1.425
x1 = 0.35	1.44572	1.44128	1.43696	1.4325
x1 = 0.4	1.45248	1.44801	1.4437	1.43922
x1 = 0.45	1.45858	1.45408	1.44977	1.44524
x1 = 0.5	1.46414	1.45962	1.4553	1.45072
x1 = 0.55	1.46918	1.46464	1.46031	1.45569
x1 = 0.6	1.47384	1.46929	1.46494	1.46029
x1 = 0.65	1.47807	1.47352	1.46917	1.46451
x1 = 0.7	1.48193	1.47737	1.47302	1.46833
x1 = 0.75	1.48549	1.48092	1.47658	1.47188
x1 = 0.8	1.48877	1.48419	1.47986	1.47516
x1 = 0.85	1.49183	1.48725	1.48292	1.47824
x1 = 0.9	1.49464	1.49006	1.48574	1.48106
x1 = 0.95	1.49721	1.49265	1.48834	1.48366
x1 = 1	1.4995	1.49498	1.49074	1.48611
